The values below are quoted from earlier work in patent US20050143343A1, “Nutritional supplement for enhancing the production and effect of natural human growth hormone” (priority 2003, published 2005).

The series concerns human growth hormone secretion. To be noted: oral administration, 15 male volunteers; 1200 mg of each constituent, in combination or alone at the same doses.

For L-arginine-2-pyrrolidone-5-carboxylate, the “secretion (release) of human growth hormone” value is “Neither of the two constituents resulted a significant release of human growth hormone”.

Consider `Cl.NCCCC[C@H](N)C(=O)O` [L-lysine hydrochloride], for which the “secretion (release) of human growth hormone” value is “Neither of the two constituents resulted a significant release of human growth hormone”.
